Results published in US9308200B2, “Dry powder formulation comprising a phosphodiesterase inhibitor” (CHIESI FARMACEUTICI S.p.A., priority 2010, dated 2016).

Test system: OVA-induced eosinophilia in BALF
Experiment: Acute model of lung inflammation: OVA-induced eosinophilia in BALF of sensitized rats
Format: in vivo
Details: male Brown-Norway rats; micronized C2 blended with lactose, intratracheal single dose 2 hours before antigen aerosol; range in brackets 0.016 to 0.051
Method: The potency of one of the preferred compounds of the present invention was evaluated in vivo in an acute model of lung inflammation following a method described in Eur. J. Pharmacol., 2002 Feb. 22; 437(3):187-94 (which is incorporated herein by reference in its entirety), with minor modifications. Briefly, male Brown-Norway rats (150-200 g) were sensitized by intraperitoneal injection of a suspension containing ovalbumin (OVA, 1 mg/rat) and Al(OH)3 (100 mg/rat) in 1 mL of saline for 3 consecutive days. Two-three weeks later, the airway inflammation was induced by inhaled antigen (OVA, 1% in saline). Vehicle-control treated animals were exposed to an aerosol of saline. […] For the detection of inhibitory potency, micronized compound C2 was blended with lactose at different concentrations and administered by the intratracheal route as single dose 2 hours before antigen aerosol.
A dose-response curve of the inhibitory effect of the test compound on OVA-induced eosinophilia in BALF was performed and the ED50 dose of compound C2 was taken as a measure of potency in this bioassay.

**Q.** Which “ED50 dose, inhibition of OVA-induced eosinophilia in BALF” value does the source give for `CS(=O)(=O)Nc1ccc(C(=O)OC(Cc2c(Cl)c[n+]([O-])cc2Cl)c2ccc(OC(F)F)c(OCC3CC3)c2)cc1OCC1CC1` (single isomer, unassigned; (-)) [Compound C2, (−)-3-Cyclopropylmethoxy-4-methanesulfonylamino-benzoic acid 1-(3-cyclopropylmethoxy-4-difluoromethoxy-phenyl)-2-(3,5-dichloro-1-oxy-pyridin-4-yl)-ethyl ester] here?
**A.** Its value is 0.028 µmol/kg.
